Test results published in US9594084B2, “Phosphorylation of histones and uses thereof” (H. LEE MOFFITT CANCER CENTER AND RESEARCH INSTITUTE, priority 2012, dated 2017).

Tests used:
[1] = tested on: WEE1 expressing cancer cell lines; conditions: cited from earlier work
5-hmC levels = assay: Slot blot of genomic DNA with 5-hmC and 5-mC antibodies; format: cell-based
Procedure: SBC12, T98G and HEK293 cells were treated with WEE1 inhibitor, MK1775 (0.6 μM, 24 hr). Blots were incubated with 5-hmC and 5-mC antibodies.
Genomic DNA was isolated, blotted by slot blot, followed by immunoblotting with 5-hmC and 5-mC antibodies. […] 5-hmC containing plasmid DNA (Zymo research) was used as positive control.

IDH2 gene transcription = assay: qRT-PCR of IDH2 in cancer cell lines; format: cell-based
From the text: (FIG. 42a-42e) RNA was isolated from cells treated with WEE1 inhibitor (or siRNA) followed by qRT-PCR using IDH2 and actin primers.
Total RNA was isolated followed by qRT-PCR with IDH2 and actin specific primers. As control, U118 cell line was used which has low levels of WEE1 (unpublished data).

WEE1 = WEE1 (Homo sapiens, UniProt P30291); assay: pTyr37-H2B immunoprecipitation/immunoblot in synchronized H1975 cells; format: cell-based; parameters: endogenous in cells; host or cells: H1975; conditions: 6.30 hours post-release, 0.3 μM
Chain of WEE1 (P30291 whole entry): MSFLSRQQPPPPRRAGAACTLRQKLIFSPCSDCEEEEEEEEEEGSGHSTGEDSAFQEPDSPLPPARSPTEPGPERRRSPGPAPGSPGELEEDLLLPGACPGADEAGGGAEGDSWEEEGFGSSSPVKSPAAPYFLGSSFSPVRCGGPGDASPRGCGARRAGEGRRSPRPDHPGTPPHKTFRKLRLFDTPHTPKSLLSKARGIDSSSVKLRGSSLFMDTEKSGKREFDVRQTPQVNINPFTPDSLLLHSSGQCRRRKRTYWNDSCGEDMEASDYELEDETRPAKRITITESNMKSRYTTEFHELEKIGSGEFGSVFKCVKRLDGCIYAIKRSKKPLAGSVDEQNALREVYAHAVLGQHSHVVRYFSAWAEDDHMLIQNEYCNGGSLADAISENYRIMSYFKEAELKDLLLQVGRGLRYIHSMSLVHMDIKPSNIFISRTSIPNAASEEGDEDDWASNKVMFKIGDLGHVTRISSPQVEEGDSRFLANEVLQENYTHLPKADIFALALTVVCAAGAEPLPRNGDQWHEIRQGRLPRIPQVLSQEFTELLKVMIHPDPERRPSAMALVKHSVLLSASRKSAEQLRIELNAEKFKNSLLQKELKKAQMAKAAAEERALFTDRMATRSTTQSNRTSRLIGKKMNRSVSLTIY
Procedure: FIG. 13A is an immunoblot showing lysates from synchronized MEFs immunoprecipitated with pTyr37-H2B antibodies followed by immunoblotting with pTyr37-H2B antibody (top panel) or H2B antibody (bottom panel). FIG. 13B is an immunoblot showing cell lysates 6.30 hours post-release from H1975 cells synchronized by double thymidine alone (first column) or with 0.31 μM (second column), 0.62 μM (third column) and 1.25 μM (fourth column) MK1775 WEE1 inhibitor that were immunoprecipitated with pTyr37-H2B antibodies followed by immunoblotting with pTyr37-H2B, H2B, pTyr15-Cdc2, or Cdc2 antibodies. FIG. 13C is an immunoblot showing lysates collected at 0 and 6.30 hours post-release from synchronized MEFs transfected with control (first two columns) or WEE1 (last two columns) siRNAs that were immunoprecipitated with pTyr37-H2B antibodies followed by immunoblotting with pTyr37-H2B (top panel), H2B (second panel), WEE1 (third panel), or PTyr15-Cdc2 (bottom panel) antibodies. FIG. 13D is an immunoblot showing equimolar amounts of purified WEE1 (last three columns) and H2B (first three columns) proteins incubated in the presence (third column) or absence of WEE1 inhibitor (MK1775, 0.625 μM) for 1 hour at 30° C. and immunoblotted with pTyr37-H2B (top panel), H2B (middle panel), and WEE1 (bottom panel) antibodies. […]

pTyr37-phosphorylation of H2B (WEE1): complete loss
Compound: C=CCn1c(=O)c2cnc(Nc3ccc(N4CCN(C)CC4)cc3)nc2n1-c1cccc(C(C)(C)O)n1 [MK-1775]
apoptosis [1]: selectively induces apoptosis
5-hmC levels (5-hmC levels; HEK293 cells, 0.6 μM, 24 hr): remained unchanged
5-hmC levels (5-hmC levels; SBC12 melanoma derived cell line, 0.6 μM, 24 hr): significant upregulation
5-hmC levels (5-hmC levels; T98G GBM-derived cells, 0.6 μM, 24 hr): significant upregulation
5-mC levels (5-hmC levels; immunoblotting with 5-mC antibodies, 0.6 μM, 24 hr): concomitant decrease
5-hmC levels (5-hmC levels; summary statement): restored
transcript levels of the IDH2 gene (IDH2 gene transcription; LNCaP (prostate), 1 uM, 24 hours): significant increase
transcript levels of the IDH2 gene (IDH2 gene transcription; U87 (GBM), 1 uM, 24 hours): significant increase
IDH2 mRNA (IDH2 gene transcription; U118 cell line (low levels of WEE1), 1 uM, 24 hours): not increased
transcript levels of the IDH2 gene (IDH2 gene transcription; WM1366 (melanoma), 1 uM, 24 hours): significant increase
IDH2 transcript levels (IDH2 gene transcription; summary statement): increased
